PubChem BioAssay (NCI)
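Briefly, cells in 96-well plates were exposed to five compound concentrations for 48 h, and endpoints were estimated by linear interpolation. Here, GI50 denotes the concentration required for 50% inhibition of growth. The concentration for full growth arrest is given as TGI.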

How the values were obtained:
Assay in all cases: NCI-60 cell line screen, 48 h
[1] = system: HCC-2998 colon
[2] = system: TK-10 renal
[3] = system: MCF7 breast
[4] = system: SN12C renal
[5] = system: K-562 leukemia
[6] = system: SK-MEL-28 melanoma
[7] = system: SNB-19 CNS
[8] = system: BT-549 breast
[9] = system: A549 NSCLC
[10] = system: MDA-MB-435
[11] = system: SNB-75 CNS
[12] = system: CAKI-1 renal
[13] = system: UO-31 renal
[14] = system: LOX IMVI melanoma
[15] = system: U251 CNS
[16] = system: MALME-3M melanoma
[17] = system: DU-145 prostate
[18] = system: IGROV1 ovarian
[19] = system: NCI-H460 lung
[20] = system: SF-268 CNS
[21] = system: UACC-257 melanoma
[22] = system: RPMI-8226 leukemia
[23] = system: NCI-H23 lung
[24] = system: M14 melanoma
[25] = system: CCRF-CEM leukemia
[26] = system: SW-620 colon
[27] = system: ACHN renal
[28] = system: UACC-62 melanoma
[29] = system: EKVX NSCLC
[30] = system: HT29 colon
[31] = system: HCT-116 colon
[32] = system: HS 578T breast
[33] = system: MDA-MB-231 breast
[34] = system: COLO 205 colon
[35] = system: T-47D breast
[36] = system: PC-3 prostate
[37] = system: SK-MEL-2 melanoma
[38] = system: HCT-15 colon
[39] = system: 786-0 renal
[40] = system: SK-OV-3 ovarian
[41] = system: OVCAR-3 ovarian
[42] = system: SK-MEL-5 melanoma
[43] = system: SF-295 CNS
[44] = system: NCI-H226 lung
[45] = system: NCI/ADR-RES ovarian
[46] = system: OVCAR-8 ovarian
[47] = system: HOP-92 NSCLC
[48] = system: RXF 393 renal
[49] = system: HOP-62 NSCLC
[50] = system: OVCAR-5 ovarian
[51] = system: A498 renal
[52] = system: HL-60(TB) leukemia
[53] = system: NCI-H522 lung
[54] = system: OVCAR-4 ovarian
[55] = system: SR leukemia
[56] = system: MOLT-4 leukemia
[57] = system: KM12 colon
[58] = system: SF-539 CNS

With `CC1(C)CN(c2cc(C(F)(F)F)cc3cncn23)CCC12NC(=O)NC2=O` (stereo unspecified) the GI50 [1] was 72.5 µM, the TGI [1] was greater than 100 µM and the GI50 [2] was 37.8 µM. It also gave a TGI [2] greater than 100 µM, a GI50 [3] of 24.2 µM and a TGI [3] greater than 100 µM. It also gave a GI50 [4] of 36.2 µM, a TGI [4] greater than 100 µM and a GI50 [5] of 40.9 µM. The TGI [5] was greater than 100 µM, the GI50 [6] was 49.9 µM and the TGI [6] was greater than 100 µM. The GI50 [7] was 46.8 µM, the TGI [7] was greater than 100 µM and the GI50 [8] was 23.2 µM. It also gave a TGI [8] greater than 100 µM, a GI50 [9] of 38 µM and a TGI [9] greater than 100 µM. The GI50 [10] was 42.2 µM, the TGI [10] was greater than 100 µM and the GI50 [11] was 16.3 µM. The TGI [11] was 68.5 µM, the GI50 [12] was 19.2 µM and the TGI [12] was 92 µM. The GI50 [13] was 21.1 µM, the TGI [13] was 83.7 µM and the GI50 [14] was 30.1 µM. It also gave a TGI [14] greater than 100 µM, a GI50 [15] of 37.5 µM and a TGI [15] greater than 100 µM. The GI50 [16] was 42.3 µM, the TGI [16] was greater than 100 µM and the GI50 [17] was 56.2 µM. It also gave a TGI [17] greater than 100 µM, a GI50 [18] of 30.5 µM and a TGI [18] greater than 100 µM. For the same compound, the GI50 [19] was 40.5 µM, the TGI [19] was greater than 100 µM and the GI50 [20] was 38.7 µM. For the same compound, the TGI [20] was greater than 100 µM, the GI50 [21] was 52.7 µM and the TGI [21] was greater than 100 µM. It also gave a GI50 [22] of 30.5 µM, a TGI [22] greater than 100 µM and a GI50 [23] of 35.5 µM. It also gave a TGI [23] greater than 100 µM, a GI50 [24] of 33.4 µM and a TGI [24] greater than 100 µM. For the same compound, the GI50 [25] was 35.6 µM, the TGI [25] was greater than 100 µM and the GI50 [26] was 52.6 µM. For the same compound, the TGI [26] was greater than 100 µM, the GI50 [27] was 33.7 µM and the TGI [27] was greater than 100 µM. It also gave a GI50 [28] of 27.7 µM, a TGI [28] greater than 100 µM and a GI50 [29] of 4.33 µM. For the same compound, the TGI [29] was 40.6 µM, the GI50 [30] was 50.9 µM and the TGI [30] was greater than 100 µM. It also gave a GI50 [31] of 26.3 µM, a TGI [31] greater than 100 µM and a GI50 [32] of 21.1 µM. The TGI [32] was 90.1 µM, the GI50 [33] was 29.2 µM and the TGI [33] was greater than 100 µM. For the same compound, the GI50 [34] was 41.9 µM, the TGI [34] was greater than 100 µM and the GI50 [35] was 21.4 µM. The TGI [35] was greater than 100 µM, the GI50 [36] was 24.4 µM and the TGI [36] was greater than 100 µM. It also gave a GI50 [37] of 32.4 µM, a TGI [37] greater than 100 µM and a GI50 [38] of 32.4 µM. The TGI [38] was greater than 100 µM, the GI50 [39] was 32.8 µM and the TGI [39] was greater than 100 µM. The GI50 [40] was 36.9 µM, the TGI [40] was greater than 100 µM and the GI50 [41] was 38.5 µM. It also gave a TGI [41] greater than 100 µM, a GI50 [42] of 18.1 µM and a TGI [42] of 35.4 µM. It also gave a GI50 [43] of 30.3 µM, a TGI [43] greater than 100 µM and a GI50 [44] of 33.5 µM. It also gave a TGI [44] greater than 100 µM, a GI50 [45] of 67.5 µM and a TGI [45] greater than 100 µM. For the same compound, the GI50 [46] was 36 µM, the TGI [46] was greater than 100 µM and the GI50 [47] was 20.1 µM. The TGI [47] was 86.5 µM, the GI50 [48] was 17.5 µM and the TGI [48] was 61.1 µM. The GI50 [49] was 40.3 µM, the TGI [49] was greater than 100 µM and the GI50 [50] was 66.1 µM. It also gave a TGI [50] greater than 100 µM, a GI50 [51] of 16.8 µM and a TGI [51] of 55.3 µM. The GI50 [52] was 22 µM, the TGI [52] was 48.9 µM and the GI50 [53] was 28.9 µM. The TGI [53] was greater than 100 µM, the GI50 [54] was 31.6 µM and the TGI [54] was greater than 100 µM. For the same compound, the GI50 [55] was 48.5 µM, the TGI [55] was greater than 100 µM and the GI50 [56] was 24.3 µM. For the same compound, the TGI [56] was greater than 100 µM, the GI50 [57] was 45.1 µM and the TGI [57] was greater than 100 µM. It also gave a GI50 [58] of 42.5 µM and a TGI [58] greater than 100 µM.
